Experimental data reported in patent US5604213A, “17-substituted steroids useful in cancer treatment” (priority 1992, dated 1997).

Key:
17α-hydroxylase = target: T1, 17α-hydroxylase (Homo sapiens, UniProt P05093); assay: Determination of 17α-hydroxylase (human testicular microsomes, 3H-progesterone); assay type: biochemical; conditions: for concentration required to achieve 50% inhibition of hydroxylase, versus the 3-pyridyl (in words): compared with 3-pyridyl
T1 construct: Human testes were obtained from previously untreated patients undergoing orchidectomy for prostatic cancer; from tissue; host or cells: human testes, microsomes
T1 sequence (P05093 1-508): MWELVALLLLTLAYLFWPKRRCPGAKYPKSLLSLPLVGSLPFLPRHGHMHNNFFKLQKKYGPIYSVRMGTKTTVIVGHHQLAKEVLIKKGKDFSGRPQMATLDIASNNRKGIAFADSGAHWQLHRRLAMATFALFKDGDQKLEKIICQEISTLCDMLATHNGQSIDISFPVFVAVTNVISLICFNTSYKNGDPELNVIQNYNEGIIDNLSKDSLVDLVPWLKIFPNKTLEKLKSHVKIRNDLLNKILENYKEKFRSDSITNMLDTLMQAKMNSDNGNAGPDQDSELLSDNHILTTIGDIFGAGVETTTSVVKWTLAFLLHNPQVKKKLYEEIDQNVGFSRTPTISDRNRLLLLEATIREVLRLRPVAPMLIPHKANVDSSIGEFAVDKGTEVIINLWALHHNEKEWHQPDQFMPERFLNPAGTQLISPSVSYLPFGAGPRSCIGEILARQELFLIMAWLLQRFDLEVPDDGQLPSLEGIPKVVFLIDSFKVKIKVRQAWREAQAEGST
Protocol: Human testes were obtained from previously untreated patients undergoing orchidectomy for prostatic cancer. The testes were decapsulated and stored in liquid nitrogen until use. A microsomal preparation was prepared essentially as described by S. E. Barrie et al., J. Steroid Biochem. 6, 1191-5, (1989). The material was then thawed, finely chopped, and homogenised in 0.25M sucrose (5 ml/g wet weight) using a Potter homogeniser. The homogenate was centrifuged at 12000 g for 30 min, and then the microsomes were pelleted by spinning the supernatant at 100,000 g for 1 hr. The pellet was washed by being resuspended in 0.25M sucrose and repelleted. The microsomal pellet was then resuspended in 50 mM sodium phosphate pH 7.4/glycerol (3/1 v/v) and stored in aliquots in liquid nitrogen.
(§2) The basic assay mixture was EDTA (0.2 mM), dithiothreitol (DTT; 0.1 mM), NADPH (0.25 mM), glucose 6-phosphate dehydrogenase (G6PDH; 6.25 μg/ml), MgCl2 (1 mM), glucose 6-phosphate (G6P; 10 mM) and the substrate, 3H-progesterone (3 μM) in sodium phosphate (50 mm), pH 7.4. The compounds under test were dissolved in 50% DMSO and the final concentrations of ethanol and DMSO were 1% each. The assay reaction was carded out for 1 hour and was terminated by the addition of 2 vols. of methanol-acetonitrile (2:1) containing approx. 100 μM unlabelled progesterone, 17α-hydroxyprogesterone, androstenedione, testosterone, and 16α-hydroxyprogesterone.
The separation of the steroids by HPLC was carried out using an "Uptight" guard column packed with 40-63 μm Nucleosil C18 and a 10 cm main column packed with 5 μm Nucleosil C18 and 60% methanol as eluant. The radioactivity in the peaks of interest was monitored on-line by mixing the HPLC effluent 1:1 with Ecoscint A (National Diagnostics) scintillation fluid, containing 25% acetonitrile, and passing the mixture through a Berthold LB506C radiochemical monitor. The hydroxylase activity was measured as the production of 17α-hydroxyprogesterone, androstenedione and testosterone.
The enzyme activity was measured in the presence of at least 4 concentrations of each compound. The data were for the 4-pyridyl and 2-picolyl compounds of Table 1 fitted by linear regression to the Dixon equation (M. Dixon, E.C. Webb, Enzymes, 2nd ed., Academic Press, New York, 1964). Data for all the other compounds were fitted by non-linear regression to the median effect equation of Chou, J. Theoret.

C17-C20 lyase = target: T2, C17-C20 lyase (Homo sapiens, UniProt P05093); assay: Determination of C17-C20 lyase (human testicular microsomes, 3H-17α-hydroxyprogesterone); assay type: biochemical; conditions: for concentration required to achieve 50% inhibition of lyase, versus the 3-pyridyl (in words): compared with 3-pyridyl
T2 construct: Human testes were obtained from previously untreated patients undergoing orchidectomy for prostatic cancer; from tissue; host or cells: human testes, microsomes
T2 sequence (P05093 1-508): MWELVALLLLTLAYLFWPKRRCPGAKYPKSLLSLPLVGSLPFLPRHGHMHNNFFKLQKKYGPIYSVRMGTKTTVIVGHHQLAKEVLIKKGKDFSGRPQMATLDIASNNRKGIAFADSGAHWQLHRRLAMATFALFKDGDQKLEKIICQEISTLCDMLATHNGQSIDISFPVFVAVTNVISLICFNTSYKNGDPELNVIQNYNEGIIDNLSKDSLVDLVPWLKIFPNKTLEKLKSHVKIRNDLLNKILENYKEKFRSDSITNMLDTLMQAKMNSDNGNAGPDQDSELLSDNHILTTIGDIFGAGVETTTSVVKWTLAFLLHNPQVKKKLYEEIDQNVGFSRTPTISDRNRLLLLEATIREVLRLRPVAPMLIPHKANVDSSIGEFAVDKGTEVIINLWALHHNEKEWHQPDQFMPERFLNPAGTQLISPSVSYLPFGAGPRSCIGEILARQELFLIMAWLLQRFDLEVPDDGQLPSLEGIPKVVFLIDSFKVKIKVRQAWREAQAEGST
Protocol: The testes were decapsulated and stored in liquid nitrogen until use. […] The material was then thawed, finely chopped, and homogenised in 0.25M sucrose (5 ml/g wet weight) using a Potter homogeniser. The homogenate was centrifuged at 12000 g for 30 min, and then the microsomes were pelleted by spinning the supernatant at 100,000 g for 1 hr. The pellet was washed by being resuspended in 0.25M sucrose and repelleted. The microsomal pellet was then resuspended in 50 mM sodium phosphate pH 7.4/glycerol (3/1 v/v) and stored in aliquots in liquid nitrogen.
as §2
The HPLC separation used for the lyase involved a mini-re-column "Uptight Guard Column" packed with PELL-ODS (pellicular octadecyl silica) and a 10 cm. main column "Apex C18" column packed with 5μ APEX-CAT silica.
The eluant was 38:12:50 methanol:acetonitrile:water flowing at 1 ml/min. The effluent was mixed 1:1 with Ecoscint A containing 5% methanol and 5% acetonitrile and the radioactivity was measured directly by a Berthold LB506C radiochemical detector. The lyase activity was measured as the production of androstenedione and testosterone.
The enzyme activity was measured in the presence of at least 4 concentrations of each compound.

Male HWT mice = assay: In vivo organ weight test in mice; conditions: for Mean weight ± standard error, Adrenals / Mean weight ± standard error, Kidneys / Mean weight ± standard error, Seminal Vesicles / Mean weight ± standard error, Prostate / Mean weight ± standard error, Testes: 2 weeks
Protocol: (§1) Male HWT mice, 12 weeks old, were treated daily for 2 weeks, with 5 animals per treatment group. The test compounds were the compound of Examples 1 and 4 (as representative of compounds of the invention having the pregenolone-like and progesterone-like skeletons respectively). Ketoconazole was also tested at three different doses. The test compounds were made up in 5% benzyl alcohol, 95% safflower oil, and were given i.p. In addition to an untreated control group of animals, there was also a solvent control group which received the same volume of liquid as the test group (5 ml/kg) but no test compound. All animals were sacrificed 24 hours after the last injection. Blood was collected by cardiac puncture into heparinized tubes, and the plasma used for RIA (radio immunoassay) of testosterone and luteinising hormone. The following organs were removed and weighed: adrenals, prostate, seminal vesicles, testes, kidneys. There was no significant body weight loss in any group of mice during the experiments.

luteinising hormone = assay: In vivo endocrine test in mice: plasma luteinising hormone (RIA); conditions: 2 weeks
Protocol: as §1

[1] = parameters: species or system mice; conditions: mouse, in vivo; for post mortem examination: appearance of organs / post mortem examination: deposits: ip
Protocol: as §1
In Ketoconazole-treated animals, adhesions were found in 2/5,2/5,4/5 of the low/middle/top dose groups. […] The livers were brown in the middle/top dose groups.

aromatase = target: T3, aromatase (Homo sapiens, UniProt P11511); assay type: biochemical; conditions: human placental microsomes
T3 construct: using human placental microsomes; from tissue; host or cells: human placenta, microsomes
T3 sequence (P11511 1-503): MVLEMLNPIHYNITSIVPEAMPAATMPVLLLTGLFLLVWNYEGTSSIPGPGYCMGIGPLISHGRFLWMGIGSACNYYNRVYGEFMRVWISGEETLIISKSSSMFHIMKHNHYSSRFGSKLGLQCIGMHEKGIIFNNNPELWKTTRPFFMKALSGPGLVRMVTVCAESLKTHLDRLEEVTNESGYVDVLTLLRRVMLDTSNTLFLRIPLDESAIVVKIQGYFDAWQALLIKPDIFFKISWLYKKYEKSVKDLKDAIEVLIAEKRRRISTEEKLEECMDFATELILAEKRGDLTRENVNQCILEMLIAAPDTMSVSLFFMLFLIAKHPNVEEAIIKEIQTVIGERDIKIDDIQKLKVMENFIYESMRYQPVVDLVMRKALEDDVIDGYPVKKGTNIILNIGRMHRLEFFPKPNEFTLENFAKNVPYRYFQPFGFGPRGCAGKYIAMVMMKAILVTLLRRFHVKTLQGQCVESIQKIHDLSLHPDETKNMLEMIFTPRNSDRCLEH
Protocol: Aromatase activity was determined by the method of A. B. Foster et al., J. Med. Chem. 26, 50-54 (1983), using human placental microsomes.

testosterone = assay: In vivo endocrine test in mice: plasma testosterone (RIA); conditions: 2 weeks
Protocol: Male HWT mice, 12 weeks old, were treated daily for 2 weeks, with 5 animals per treatment group. […] The test compounds were made up in 5% benzyl alcohol, 95% safflower oil, and were given i.p. In addition to an untreated control group of animals, there was also a solvent control group which received the same volume of liquid as the test group (5 ml/kg) but no test compound. All animals were sacrificed 24 hours after the last injection. Blood was collected by cardiac puncture into heparinized tubes, and the plasma used for RIA (radio immunoassay) of testosterone and luteinising hormone.

[2] = substrate: C[C@]12CCC(=O)C=C1CC[C@@H]1[C@@H]2CC[C@]2(C)C(=O)CC[C@@H]12; assay: cells, lysate or membranes named; conditions: other: human placental microsomes used

Molecule: CC12CCC(Oc3c(F)c(F)c(C(F)(F)F)c(F)c3F)CC1=CCC1C2CCC2(C)C(c3cccnc3)=CCC12 (stereo not shown)
- inhibition of hydroxylase (in words) (17α-hydroxylase): very poor inhibitor
- inhibition of lyase (in words) (C17-C20 lyase): very poor inhibitor

Molecule: CC(=O)O[C@H]1CC[C@@]2(C)C(=CC[C@@H]3[C@@H]2CC[C@]2(C)C(c4cccnc4)=CC[C@@H]32)C1 [Ex. 1, 3β-Acetoxy-17-(3-pyridyl)androsta-5,16-diene]
- Mean weight ± standard error, Adrenals (Male HWT mice; 0.02 mmol/kg/day i.p.): 4.3 ± 0.2 mg
- Mean weight ± standard error, Kidneys (Male HWT mice; 0.02 mmol/kg/day i.p.): 604 ± 24 mg
- Mean weight ± standard error, Adrenals (Male HWT mice; 0.1 mmol/kg/day i.p.): 4.0 ± 0.2 mg
- Mean weight ± standard error, Kidneys (Male HWT mice; 0.1 mmol/kg/day i.p.): 500 ± 8 mg
- Mean weight ± standard error, Adrenals (Male HWT mice; 0.5 mmol/kg/day i.p.): 4.7 ± 0.2 mg
- Mean weight ± standard error, Kidneys (Male HWT mice; 0.5 mmol/kg/day i.p.): 449 ± 12 mg
- LH (Mean ± standard error) (luteinising hormone; 0.02 mmol/kg/day i.p.): 3.4 ± 0.5 ng/mL
- post mortem examination: appearance of organs [1]: all organs looked normal
- post mortem examination: deposits [1]: oil/white deposits i.p.

Molecule: C[C@]12CC[C@H](O)CC1=CC[C@@H]1[C@@H]2CC[C@]2(C)C(c3cccnc3)=CC[C@@H]12 [Ex. 2, 17-(3-Pyridyl)androsta-5,16-dien-3β-ol]
- IC50 (aromatase): > 20 µM

Molecule: C[C@]12CCC(=O)C=C1CC[C@@H]1[C@@H]2CC[C@]2(C)C(c3cccnc3)=CC[C@@H]12 [Ex. 4, 17-(3-Pyridyl)androsta-4,16-dien-3-one]
- Mean weight ± standard error, Adrenals (Male HWT mice; 0.02 mmol/kg/day i.p.): 4.7 ± 0.2 mg
- Mean weight ± standard error, Seminal Vesicles (Male HWT mice; 0.02 mmol/kg/day i.p.): 108 ± 4 mg
- Mean weight ± standard error, Adrenals (Male HWT mice; 0.1 mmol/kg/day i.p.): 4.6 ± 0.4 mg
- Mean weight ± standard error, Seminal Vesicles (Male HWT mice; 0.1 mmol/kg/day i.p.): 61 ± 9 mg
- Mean weight ± standard error, Adrenals (Male HWT mice; 0.5 mmol/kg/day i.p.): 4.9 ± 0.1 mg
- Mean weight ± standard error, Seminal Vesicles (Male HWT mice; 0.5 mmol/kg/day i.p.): 25 ± 1 mg
- Testosterone (Mean ± standard error) (testosterone; 0.02 mmol/kg/day i.p.): 4.5 ± 0.3 nM
- Testosterone (Mean ± standard error) (testosterone; 0.1 mmol/kg/day i.p.): 3.5 ± 1.0 nM
- Testosterone (Mean ± standard error) (testosterone; 0.5 mmol/kg/day i.p.): 0.4 ± 0.1 nM
- post mortem examination: appearance of organs [1]: all organs looked normal
- post mortem examination: deposits [1]: white deposits throughout the abdomen

Molecule: C[C@]12CCC(=O)C[C@@H]1CC[C@@H]1[C@@H]2CC[C@]2(C)C(c3cccnc3)=CC[C@@H]12 [Ex. 9, 17-(3-Pyridyl)-5α-androst-16-en-3-one]
- IC50 (17α-hydroxylase; approx. 4 nM enzyme, A and B ring variations, read-out: IC50 Hydroxylase (Table 2(a))): 4.7 nM

Molecule: C[C@]12CC[C@H](O)CC1=CC[C@@H]1[C@@H]2CC[C@]2(C)C(c3ccccn3)=CC[C@@H]12 [Example 2-Pyridyl]
- concentration required to achieve 50% inhibition of hydroxylase, versus the 3-pyridyl (in words) (17α-hydroxylase): far greater
- concentration required to achieve 50% inhibition of lyase, versus the 3-pyridyl (in words) (C17-C20 lyase): far greater

Molecule: C[C@]12CC[C@H](O)CC1=CC[C@@H]1[C@@H]2CC[C@]2(C)C(Cc3ccccn3)=CC[C@@H]12 [Example 2-picolyl]
- concentration required to achieve 50% inhibition of hydroxylase, versus the 3-pyridyl (in words) (17α-hydroxylase): far greater
- concentration required to achieve 50% inhibition of lyase, versus the 3-pyridyl (in words) (C17-C20 lyase): far greater

Molecule: C[C@]12CC[C@H](O)CC1=CC[C@@H]1[C@@H]2CC[C@]2(C)C(c3ccncc3)=CC[C@@H]12 [Example 4-pyridyl]
- concentration required to achieve 50% inhibition of hydroxylase, versus the 3-pyridyl (in words) (17α-hydroxylase): far greater
- concentration required to achieve 50% inhibition of lyase, versus the 3-pyridyl (in words) (C17-C20 lyase): far greater

Molecule: CC(=O)N1CCN(c2ccc(OCC3COC(Cn4ccnc4)(c4ccc(Cl)cc4Cl)O3)cc2)CC1 (stereo not shown) [Ketoconazole]
- Mean weight ± standard error, Adrenals (Male HWT mice; 0.01 mmol/kg/day i.p.): 4.8 ± 0.2 mg
- Mean weight ± standard error, Kidneys (Male HWT mice; 0.01 mmol/kg/day i.p.): 637 ± 22 mg
- Mean weight ± standard error, Prostate (Male HWT mice; 0.01 mmol/kg/day i.p.): 9.1 ± 0.8 mg
- Mean weight ± standard error, Seminal Vesicles (Male HWT mice; 0.01 mmol/kg/day i.p.): 235 ± 18 mg
- Mean weight ± standard error, Testes (Male HWT mice; 0.01 mmol/kg/day i.p.): 141 ± 5 mg
- Mean weight ± standard error, Adrenals (Male HWT mice; 0.225 mmol/kg/day i.p.): 6.1 ± 0.3 mg
- Mean weight ± standard error, Kidneys (Male HWT mice; 0.225 mmol/kg/day i.p.): 574 ± 23 mg
- Mean weight ± standard error, Prostate (Male HWT mice; 0.225 mmol/kg/day i.p.): 10.8 mg
- Mean weight ± standard error, Seminal Vesicles (Male HWT mice; 0.225 mmol/kg/day i.p.): 171 ± 5 mg
- Mean weight ± standard error, Testes (Male HWT mice; 0.225 mmol/kg/day i.p.): 127 ± 7 mg
- Mean weight ± standard error, Adrenals (Male HWT mice; 0.5 mmol/kg/day i.p.): 6.9 ± 0.3 mg
- Mean weight ± standard error, Kidneys (Male HWT mice; 0.5 mmol/kg/day i.p.): 710 ± 30 mg
- Mean weight ± standard error, Prostate (Male HWT mice; 0.5 mmol/kg/day i.p.): 9.3 ± 0.9 mg
- Mean weight ± standard error, Seminal Vesicles (Male HWT mice; 0.5 mmol/kg/day i.p.): 179 ± 20 mg
- Mean weight ± standard error, Testes (Male HWT mice; 0.5 mmol/kg/day i.p.): 133 ± 6 mg
- effect on adrenal weight (Male HWT mice; two highest doses): increase in adrenal weight
- LH (Mean ± standard error) (luteinising hormone; 0.1 mmol/kg/day i.p.): 0.39 ± 0.14 ng/mL
- LH (Mean ± standard error) (luteinising hormone; 0.225 mmol/kg/day i.p.): 0.75 ± 0.02 ng/mL
- LH (Mean ± standard error) (luteinising hormone; 0.5 mmol/kg/day i.p.): 0.76 ± 0.03 ng/mL
- appearance of livers [1]: brown
- gut and peritoneal wall, appearance [1]: seemed to be stuck to the seminal vesicles

B1: aromatase (Homo sapiens) (protein)
chain: MVLEMLNPIHYNITSIVPEAMPAATMPVLLLTGLFLLVWNYEGTSSIPGPGYCMGIGPLISHGRFLWMGIGSACNYYNRVYGEFMRVWISGEETLIISKSSSMFHIMKHNHYSSRFGSKLGLQCIGMHEKGIIFNNNPELWKTTRPFFMKALSGPGLVRMVTVCAESLKTHLDRLEEVTNESGYVDVLTLLRRVMLDTSNTLFLRIPLDESAIVVKIQGYFDAWQALLIKPDIFFKISWLYKKYEKSVKDLKDAIEVLIAEKRRRISTEEKLEECMDFATELILAEKRGDLTRENVNQCILEMLIAAPDTMSVSLFFMLFLIAKHPNVEEAIIKEIQTVIGERDIKIDDIQKLKVMENFIYESMRYQPVVDLVMRKALEDDVIDGYPVKKGTNIILNIGRMHRLEFFPKPNEFTLENFAKNVPYRYFQPFGFGPRGCAGKYIAMVMMKAILVTLLRRFHVKTLQGQCVESIQKIHDLSLHPDETKNMLEMIFTPRNSDRCLEH
- Km [2]: 0.039 µM
